Data as given in ChEMBL document CHEMBL1141883 (J Med Chem, 2005).

Assays:
[1] = target: Cyclin-dependent kinase 5/CDK5 activator 1 (Homo sapiens, UniProt Q00535); assay: Inhibition of Cyclin-dependent kinase 5-p25nck5a; type: protein-complex assay
[2] = target: Cyclin-dependent kinase 1/cyclin B (Homo sapiens, UniProt P06493); assay: Inhibition of cyclin-dependent kinase 1/cyclinB; type: protein-complex assay
[3] = target: Glycogen synthase kinase-3 (Homo sapiens, UniProt P49840+P49841); assay: Inhibition of glycogen synthase kinase 3; type: protein assay
[4] = target: Cyclin-dependent kinase 6 (Homo sapiens, UniProt Q00534); assay: Inhibition of human cyclin-dependent kinase 6 complex with a virus-encoded cyclin from herpesvirus saimiri (Vcyclin)
Chain of Cyclin-dependent kinase 6 (Q00534 whole entry): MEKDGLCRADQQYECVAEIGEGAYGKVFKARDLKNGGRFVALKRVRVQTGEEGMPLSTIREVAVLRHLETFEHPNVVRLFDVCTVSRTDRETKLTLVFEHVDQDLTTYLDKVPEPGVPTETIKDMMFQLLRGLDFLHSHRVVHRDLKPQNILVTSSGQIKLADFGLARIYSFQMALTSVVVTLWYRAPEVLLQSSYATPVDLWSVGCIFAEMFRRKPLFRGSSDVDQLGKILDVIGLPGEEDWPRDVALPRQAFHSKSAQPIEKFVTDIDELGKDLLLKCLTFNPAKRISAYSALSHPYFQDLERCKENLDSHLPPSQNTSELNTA

Chain of Cyclin-dependent kinase 5/CDK5 activator 1 (Q00535 whole entry): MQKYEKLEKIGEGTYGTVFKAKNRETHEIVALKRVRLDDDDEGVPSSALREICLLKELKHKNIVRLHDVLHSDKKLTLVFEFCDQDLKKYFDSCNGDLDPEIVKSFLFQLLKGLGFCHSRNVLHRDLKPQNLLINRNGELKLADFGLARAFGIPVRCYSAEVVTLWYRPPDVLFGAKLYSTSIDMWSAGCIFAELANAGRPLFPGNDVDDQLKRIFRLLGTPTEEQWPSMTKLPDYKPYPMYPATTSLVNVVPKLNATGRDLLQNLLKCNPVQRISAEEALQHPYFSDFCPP
Chain of Cyclin-dependent kinase 5/CDK5 activator 1 (Q15078 whole entry, further chain): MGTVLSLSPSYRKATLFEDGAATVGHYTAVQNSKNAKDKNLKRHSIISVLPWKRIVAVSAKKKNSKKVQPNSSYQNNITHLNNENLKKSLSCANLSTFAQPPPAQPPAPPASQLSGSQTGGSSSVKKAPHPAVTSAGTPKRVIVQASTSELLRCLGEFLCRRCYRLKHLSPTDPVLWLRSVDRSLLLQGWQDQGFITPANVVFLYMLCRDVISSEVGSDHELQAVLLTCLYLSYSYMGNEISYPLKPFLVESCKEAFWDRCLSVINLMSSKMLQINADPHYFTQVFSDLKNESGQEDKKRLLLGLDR

`O=c1cc(-c2ccc(O)cc2)oc2cc(O)cc(O)c12` [APIGENIN] gave an IC50 [1] of 1.6 µM, an IC50 [2] of 4 µM and an IC50 [3] of 1.4 µM. The IC50 [4] was 1.7 µM.

Work on `O=c1cc(-c2ccccc2)oc2cc(O)cc(O)c12` [CHRYSIN] yielded an IC50 [1] of 3.1 µM, an IC50 [2] of 7.1 µM and an IC50 [3] of 7.2 µM. It also gave an IC50 [4] of 6 µM.

Compound `O=c1c(O)c(-c2ccc(O)c(O)c2)oc2cc(O)ccc12` [FISETIN] has an IC50 [1] of 0.57 µM, an IC50 [2] of 0.79 µM and an IC50 [3] of 0.42 µM.

In the case of `O=c1c(O)c(-c2ccc(O)cc2)oc2cc(O)cc(O)c12` [KAEMPFEROL], the IC50 [1] is reported as 51 µM, the IC50 [2] is reported as 41 µM and the IC50 [3] is reported as 3.5 µM. For the same compound, the IC50 [4] was 22 µM.

With `O=c1cc(-c2ccc(O)c(O)c2)oc2cc(O)cc(O)c12` [LUTEOLIN] the IC50 [1] was 3.8 µM, the IC50 [3] was 0.8 µM and the IC50 [4] was greater than 300 µM.

With `O=c1c(O)c(-c2ccc(O)c(O)c2)oc2cc(O)cc(O)c12` [QUERCETIN] the IC50 [2] was 75 µM, the IC50 [3] was 2.1 µM and the IC50 [4] was 25 µM.
